This passage reports Amylase activity results from patent EP0958817A1, “COMPOSITION CONTAINING DIARYLALKANE DERIVATIVE AS THE ACTIVE INGREDIENT FOR TREATING OR PREVENTING PANCREATITIS” (SANKYO COMPANY LIMITED, priority 1996, dated 1998).

Assay [1] has as its system pancreatitis induced by choline-deficient ethionine supplemented diet. Put plainly: Inhibitory activity against pancreatitis induced by choline-deficient ethionine supplemented diet (CDE diet); serum amylase activity as index of pancreatitis. The class given is in vivo, ICR female mouse. The settings on record: serum 64 h after start of CDE diet, twice a day, 6 times in total. As for the experimental part:
Pancreatitis of a mouse was induced by choline-deficient ethionine supplemented diet (CDE diet). A modified method of Lombardi et al [Lombardi et al, Am. J. Pathol., 79, 465-480 (1975)] was carried out. Briefly, the pancreatitis was induced by feeding an ICR female mouse (Charles River Japan, Inc. three-weeks old) choline deficient diet to which 0.5% (w/w) DL-ethionine was added (CDE diet). Sixty four hours after the feeding with the CDE diet, approximately 0.3 ml of the blood was collected from the heart of the mouse under anesthesia with ether. The collected blood was allowed to stand at room temperature for 2 hours to coagulate, followed by centrifugation (at 12,000 rpm for 10 minutes), to obtain serum. The amylase activity in the serum was measured by an amylase activity assay kit (Amylase B-Test Wako, product of Wako Pure Chemical Industries, Ltd.) and was designated as an index of pancreatitis. The test compound suspended in a 0.5% (w/v) tragacanth solution was administered to mice one hour before the feeding of the CDE diet and was administered twice a day, 6 times in total. The control group was fed with the CDE diet to induce pancreatitis but the test compounds were not administered to the control group. The normal group was not fed with the CDE diet but was fed with ordinary food.

The test system of assay [2] is cerulein-induced pancreatitis. Put plainly: Inhibitory activity against cerulein-induced pancreatitis; serum amylase activity as index of pancreatitis. It counts as in vivo, Wistar rats. The settings on record: Table 6, serum 3 h after final cerulein (20 µg/kg i.p., four times), control group 48.7. As for the experimental part:
Induction of experimental acute pancreatitis in rats was carried out by a modified method of Otsuki et al [Otsuki et al, Dig. Dis. Sci., 35, 242-250 (1990)]. Briefly, cerulein (20 µg/kg) was intraperitoneally administered to Wistar rats (Japan SLC, weight: about 200 g) every one hour, four times in total. Three hours after the final administration, the blood was collected from the jugular vein of the rat under anesthesia with ether. The collected blood was allowed to stand at room temperature for 2 hours to coagulate, followed by centrifugation (at 12,000 rpm for 10 minutes), to obtain serum. The amylase activity of the serum was measured using an amylase activity assay kit (Amylase B-Test Wako, product of Wako Pure Chemical Industries, Ltd.) and was designated as an index of pancreatitis. The test compound suspended in a 0.5% (w/v) tragacanth solution was orally administered 30 minutes before the first injection of the cerulein. The control group is defined as a group in which pancreatitis was induced, but to which the test compounds were not administered.

Where [3] appears, read: Table 4, dose 10 mg/kg, control group 64.7, normal group 6.6.
Where [4] appears, read: Table 4, dose 30 mg/kg, control group 64.7, normal group 6.6.

Molecules are shown by their SMILES. Structures can show the parent of a compound that is named as a salt.

As to `COc1cc(CCc2cc(F)ccc2OCC[C@@H]2C[C@@H](O)CN2C)ccc1F` [Preparation Example 2, (2R,4R)-2-[2-[4-Fluoro-2-[2-(4-fluoro-3-methoxypheny)ethyl]phenoxy]ethyl]-4-hydroxy-1-methylpyrrolidine hydrochloride], the Amylase activity in assay [1] (setting [3]) stood at 53.7 IU/ml; in assay [1] (setting [4]), 31.2 IU/ml.
Turning to `COc1cccc(CCc2ccccc2OCC[C@@H]2C[C@@H](O)CN2C)c1.Cl` [Preparation Example 18, (2R,4R)-4-Hydroxy-2-[2-[2-[2-(3-methoxyphenyl)ethyl]phenoxy]ethyl]-1-methylpyrrolidine hydrochloride], the Amylase activity in assay [1] (Table 5, dose 10 mg/kg, control group 48.0, normal group 8.7) is reported as 25.7 IU/ml; in assay [1] (Table 5, dose 30 mg/kg, control group 48.0, normal group 8.7), 21.8 IU/ml.
On to `CCCCCCCCCCCC(=O)O[C@@H]1C[C@@H](CCOc2ccccc2CCc2cccc(OC)c2)N(C)C1.Cl` [Preparation Example 3, (2R,4R)-4-Lauroyloxy-2-[2-[2-[2-(3-methoxyphenyl)ethyl]phenoxy]ethyl]-1-methylpyrrolidine hydrochloride], for which the Amylase activity in assay [1] (Table 3, dose 10 mg/kg, control group 71.7, normal group 7.4) amounted to 35.0 IU/ml; in assay [1] (Table 3, dose 30 mg/kg, control group 71.7, normal group 7.4) it was 32.1 IU/ml; in assay [2] (dose 10 mg/kg orally 30 minutes before first cerulein), 43.6 IU/ml; in assay [2] (dose 30 mg/kg orally 30 minutes before first cerulein), 34.9 IU/ml; in assay [2] (dose 100 mg/kg orally 30 minutes before first cerulein), 31.7 IU/ml.
Consider `COc1cc(CCc2ccccc2OCC[C@@H]2C[C@@H](O)CN2C)ccc1F.Cl` [Preparation Example 4, (2R,4R)-2-[2-[2-[2-(4-Fluoro-3-methoxyphenyl)ethyl]phenoxy]ethyl]-4-hydroxy-1-methylpyrrolidine hydrochloride], for which the Amylase activity is 48.4 IU/ml in assay [1] (setting [3]) and 30.5 IU/ml in assay [1] (setting [4]).
